Results reported in patent EP2444086A1, “Combinations comprising DHODH inhibitors and COX inhibitors” (Almirall, S.A., priority 2010, dated 2012).

Tested on: HaCaT cells
Assay: Proliferation assay (ATP-lite bioluminescent assay of intracellular ATP content)
Format: cell-based
Details: Homo sapiens, 144 h; inhibition of proliferation of HaCaT cells, 6 days incubation, 10% FBS, absolute IC50, mean of 3 experiments
Description: Human adult low calcium high temperature (HaCaT) cells are spontaneously transformed human keratinocytes that have the characteristics of basal epidermal keratinocytes (Boukamp et at. J Cell Biol 106:761-771, 1988) This line can be used as in vitro model for highly proliferative epidermis (Ockenfels et at., Arch Dermatol Res 287:301-309, 1995)
HaCaT cells exponentially growing were plated in clear bottom, white walled, 96-well plates at a density of 5000 cells/well in 100 µL Dulbecco's modified Eagle's medium (DMEM) containing 1% fetal bovine serum (FBS), and incubated overnight at 37 °C, 5% CO2. Next day, media in each well was replaced with 50 µL growth medium containing 10% FBS. 50 µL of compounds at two-fold the desired concentration in growth medium containing 2% dimethyl sulfoxide (DMSO) were added to the wells. Six wells were replaced with fresh 100 µL of medium containing 1% FBS and 1% DMSO and were used as a control of no proliferation. Six other wells were replaced with fresh 100 µL of medium containing 10% FBS and 1% DMSO and were used as a control of top proliferation. Each compound concentration was tested in triplicate and ranged from 100 µM to 0.4 µM in half-log serial dilutions. Plates were incubated at 37°C 5% CO2 for 6 consecutive days. On the day of the assay, media was removed and replaced with 100 µL of phosphate buffered saline (PBS). A bioluminescent assay was performed to assess the intracellular adenosine-5'-triphosphate (ATP) content following the manufacturer instructions (ATP-lite, Perkin Elmer, Belgium). Results were expressed as a % of inhibition of proliferation in relation to the top and bottom proliferation wells. Absolute IC50 corresponded to the concentration of compound that caused 50% inhibition of proliferation. Table 1 depicts the mean and the standard deviation of 3 experiments for each indicated compound/combination.

Compound	IC50 [nM]
COc1cccc(-c2cc(F)c(Nc3ncccc3C(=O)O)c(F)c2)c1 [Example 1, 2-(3,5-difluoro-3'-methoxybiphenyl-4-ylamino)nicotinic acid]	580
O=C(O)c1cc(C2CC2)ccc1Nc1cnc(-c2c(F)cccc2F)nc1 [Example 2, 5-cyclopropyl-2-(2-(2,6-difluorophenyl)pyrimidin-5-ylamino)benzoic acid]	260
CC(O)=C(C#N)C(=O)Nc1ccc(C(F)(F)F)cc1 [Example 3, 2-Butenamide, 2-cyano-3-hydroxy-N-[4-(trifluoromethyl)phenyl]-, reference compound]	15200
